In patent US20210120813A1, “INHIBITORS OF THE SHIKIMATE PATHWAY” (PEPTICOM LTD., priority 2018, published 2021):
“And” between values parts separate entries of the source, which are not always exact repeats. Equal entries are not always repeated. “Also recorded” adds a separate entry of the source. Where two headings read alike, the source gives them in different places.

Legend:
[1] = system: EPSPS (TIPS mutant) from common wheat; assay type: cell-based, Triticum Aestivum
[2] = system: EPSPS (wild type) from common wheat; assay type: cell-based, Triticum Aestivum; details: for ability of rescued AB2829 bacteria cells (wild type EPSPS) to grow on M9 minimal media: 40 h, 0.1% rhamnose
[3] = system: EPSPS (TIPS mutant) from common wheat; assay type: cell-based, Triticum Aestivum; remark: listed apart in the source
TIPS EPSPS = TIPS EPSPS (Triticum aestivum, UniProt B5M6A1, P172S/T168I); assay type: biochemical; details: for effect of the TIPS mutation on inhibition of EPSPS activity (IC50 WT vs TIPS): WT vs TIPS EPSPS enzyme
WT EPSPS = WT EPSPS (Triticum aestivum, UniProt B5M6A1); experiment: In-vitro kinetics of EPSPS enzymatic activity (Malachite green phosphate release), WT; assay type: biochemical; details: apparent Km increases, Vmax unaffected; glyphosate vs PEP, compound 4 vs S3P
[4] = system: Chenopodium album (CHEAL); experiment: Weed efficacy on petri dishes, germination and visual notation, CHEAL; assay type: in vivo; details: for CHEAL Visual notation Mean: scale 0 = as control to 100
[5] = system: Lolium multiflorum (LOLMU); experiment: Weed efficacy on petri dishes, germination and visual notation, LOLMU; assay type: in vivo; details: for LOLMU Visual notation Mean: scale 0 = as control to 100

Chain of TIPS EPSPS (B5M6A1 66-510 P172S/T168I limits assumed): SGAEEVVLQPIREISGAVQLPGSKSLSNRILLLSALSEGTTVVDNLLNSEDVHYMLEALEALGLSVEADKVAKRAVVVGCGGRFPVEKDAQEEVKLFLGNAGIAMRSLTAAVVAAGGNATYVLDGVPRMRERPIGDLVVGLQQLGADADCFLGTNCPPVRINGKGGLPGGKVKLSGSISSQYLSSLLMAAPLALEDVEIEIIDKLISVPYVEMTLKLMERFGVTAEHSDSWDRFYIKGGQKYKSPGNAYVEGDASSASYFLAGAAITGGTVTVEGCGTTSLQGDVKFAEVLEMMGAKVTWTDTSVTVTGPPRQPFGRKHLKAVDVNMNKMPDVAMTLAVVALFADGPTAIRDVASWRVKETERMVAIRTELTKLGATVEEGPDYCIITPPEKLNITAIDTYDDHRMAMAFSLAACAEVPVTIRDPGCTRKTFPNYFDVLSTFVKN
Chain of WT EPSPS (B5M6A1 66-510 limits assumed): as the sequence (B5M6A1 66-510 P172S/T168I limits assumed) above, with I103T, S107P counted along it

SMILES: O=C(O)c1cc([N+](=O)[O-])c(F)c(C(F)(F)F)c1 [Compound 14, 4-Fluoro-3-nitro-5-(trifluoromethyl)benzoic acid]
- % bacterial growth relative to rescue with mutant EPSPS at 20 mM, 40 h post application [1]: −142%
- ability of rescued AB2829 bacteria cells (EPSPS TIPS) to grow on M9 minimal media ([1]; 20 mM, 40 h, 0.1% rhamnose): completely abolish

SMILES: COc1ccc(C(=O)O)cc1O [Compound 2, 3-Hydroxy-4-methoxybenzoic acid]
- % bacterial growth relative to rescue with mutant EPSPS at 20 mM, 40 h post application [1]: −25%
- ability of rescued AB2829 bacteria cells (EPSPS TIPS) to grow on M9 minimal media ([1]; 20 mM, 40 h, 0.1% rhamnose): completely abolish
- % bacterial growth relative to rescue with wild type EPSPS at 5 mM, 40 h post application [2]: 27%
- ability of rescued AB2829 bacteria cells (wild type EPSPS) to grow on M9 minimal media ([2]; 5 mM): completely abolish

SMILES: O=C(O)c1cccc(O)c1O [Compound 3, 2,3-Dihydroxybenzoic acid]
- % bacterial growth relative to rescue with mutant EPSPS at 20 mM, 40 h post application [1]: −105%
- ability of rescued AB2829 bacteria cells (EPSPS TIPS) to grow on M9 minimal media ([1]; 20 mM, 40 h, 0.1% rhamnose): completely abolish
- growth with gradually increasing rhamnose (EPSPS TIPS titration) ([3]; 2.5 mM, rhamnose 0%-0.4%, 60 h): facilitates growth in a gradual manner
- % bacterial growth relative to rescue with wild type EPSPS at 5 mM, 40 h post application [2]: 54%
- ability of rescued AB2829 bacteria cells (wild type EPSPS) to grow on M9 minimal media ([2]; 5 mM): completely abolish

SMILES: COc1c(C(=O)O)ccc([N+](=O)[O-])c1O [Compound 1, 3-Hydroxy-2-methoxy-4-nitrobenzoic acid]
- % bacterial growth relative to rescue with mutant EPSPS at 20 mM, 40 h post application [1]: −79%
- ability of rescued AB2829 bacteria cells (EPSPS TIPS) to grow on M9 minimal media ([1]; 20 mM, 40 h, 0.1% rhamnose): completely abolish
- % bacterial growth relative to rescue with wild type EPSPS at 5 mM, 40 h post application [2]: −15%
- ability of rescued AB2829 bacteria cells (wild type EPSPS) to grow on M9 minimal media ([2]; 5 mM): completely abolish

SMILES: O=C(O)CNCP(=O)(O)O [Glyphosate, N-(phosphonomethyl)glycine, reference compound]
- % bacterial growth relative to rescue with mutant EPSPS at 20 mM, 40 h post application [1]: +127% (+/−37%)
- ability of rescued AB2829 bacteria cells (EPSPS TIPS) to grow on M9 minimal media ([1]; 20 mM, 40 h, 0.1% rhamnose): TIPS mutant is indifferent to glyphosate; also recorded: facilitates growth
- effect of the TIPS mutation on inhibition of EPSPS activity (IC50 WT vs TIPS) (TIPS EPSPS): 3 orders of magnitude stronger
- mode of EPSPS inhibition (Michaelis-Menten and Lineweaver-Burk plots) (WT EPSPS): competitive inhibitor
- growth with gradually increasing rhamnose (EPSPS TIPS titration) [3]: facilitates growth in a gradual manner
- % bacterial growth relative to rescue with wild type EPSPS, 40 h post application [2]: +6.0% (0.7 mM) −46% (1.5 mM)
- ability of rescued AB2829 bacteria cells (wild type EPSPS) to grow on M9 minimal media ([2]; 0.7 mM): could not facilitates growth
- ability of rescued AB2829 bacteria cells (wild type EPSPS) to grow on M9 minimal media ([2]; 1.5 mM): could not facilitates growth

SMILES: Nc1ccc([N+](=O)[O-])cc1C(=O)O [Compound 7, 2-Amino-5-nitrobenzoic acid]
- % bacterial growth relative to rescue with mutant EPSPS at 20 mM, 40 h post application [1]: −260%
- ability of rescued AB2829 bacteria cells (EPSPS TIPS) to grow on M9 minimal media ([1]; 20 mM, 40 h, 0.1% rhamnose): completely abolish

SMILES: O=C(O)c1cccc(C(=O)O)c1O [Compound 5, 2-Hydroxy-1,3-benzenedicarboxylic acid]
- % bacterial growth relative to rescue with mutant EPSPS at 20 mM, 40 h post application [1]: −220%
- ability of rescued AB2829 bacteria cells (EPSPS TIPS) to grow on M9 minimal media ([1]; 20 mM, 40 h, 0.1% rhamnose): completely abolish

SMILES: O=C(O)c1cc([N+](=O)[O-])cc([N+](=O)[O-])c1 [Compound 11, 3,5-Dinitrobenzoic acid]
- % bacterial growth relative to rescue with mutant EPSPS at 20 mM, 40 h post application [1]: −27%
- ability of rescued AB2829 bacteria cells (EPSPS TIPS) to grow on M9 minimal media [1]: completely abolish
- CHEAL Germination (%) Mean ([4]; in vivo): 73.3% and 66.1% and 37.6%
- growth with gradually increasing rhamnose (EPSPS TIPS titration) [3]: facilitates growth in a gradual manner
- ability of rescued AB2829 bacteria cells (wild type EPSPS) to grow on M9 minimal media ([2]; 5 mM): completely abolish
- % bacterial growth relative to rescue with wild type EPSPS at 5 mM, 40 h post application ([2]; 5 mM, 40 h post application, OD600, EPSPS null = 0%, Rescue = 100%): −38%
- LOLMU Germination (%) Mean ([5]; in vivo): 82.2% and 95.6%

SMILES: O=C(O)c1cc(C(F)(F)F)cc([N+](=O)[O-])c1F [Compound 16, 2-Fluoro-3-nitro-5-(trifluoromethyl)benzoic acid]
- % bacterial growth relative to rescue with mutant EPSPS at 20 mM, 40 h post application [1]: −56%
- ability of rescued AB2829 bacteria cells (EPSPS TIPS) to grow on M9 minimal media ([1]; 20 mM, 40 h, 0.1% rhamnose): completely abolish

SMILES: O=C(O)c1ccc(O)c([N+](=O)[O-])c1 [Compound 10, 4-Hydroxy-3-nitrobenzoic acid]
- % bacterial growth relative to rescue with mutant EPSPS at 20 mM, 40 h post application [1]: −21%
- ability of rescued AB2829 bacteria cells (EPSPS TIPS) to grow on M9 minimal media ([1]; 20 mM, 40 h, 0.1% rhamnose): completely abolish
- CHEAL Germination (%) Mean ([4]; 50 mg a.i./L, 10 DAT): 68.8%
- CHEAL Visual notation Mean ([4]; 50 mg a.i./L, 10 DAT): 52.4
- CHEAL Germination (%) Mean ([4]; 500 mg a.i./L, 10 DAT): 81.7%
- CHEAL Visual notation Mean ([4]; 500 mg a.i./L, 10 DAT): 54.4
- CHEAL Germination (%) Mean ([4]; 5000 mg a.i./L, 10 DAT): 56.7%
- CHEAL Visual notation Mean ([4]; 5000 mg a.i./L, 10 DAT): 76.5
- growth with gradually increasing rhamnose (EPSPS TIPS titration) ([3]; 0.4 mM, rhamnose 0%-0.4%, 60 h): facilitates growth in a gradual manner
- % bacterial growth relative to rescue with wild type EPSPS at 5 mM, 40 h post application [2]: −61%
- ability of rescued AB2829 bacteria cells (wild type EPSPS) to grow on M9 minimal media ([2]; 5 mM): completely abolish
- LOLMU Germination (%) Mean ([5]; 50 mg a.i./L, 10 DAT): 95.6%
- LOLMU Visual notation Mean ([5]; 50 mg a.i./L, 10 DAT): 18.4
- LOLMU Germination (%) Mean ([5]; 500 mg a.i./L, 10 DAT): 95.6%
- LOLMU Visual notation Mean ([5]; 500 mg a.i./L, 10 DAT): 31.8
- LOLMU Germination (%) Mean ([5]; 5000 mg a.i./L, 10 DAT): 95.6%
- LOLMU Visual notation Mean ([5]; 5000 mg a.i./L, 10 DAT): 54.0

SMILES: O=C1NC(=O)c2c1ccc(O)c2O [Compound 13, 4,5-Dihydroxyisoindoline-1,3-dione]
- % bacterial growth relative to rescue with mutant EPSPS at 20 mM, 40 h post application [1]: −31%
- ability of rescued AB2829 bacteria cells (EPSPS TIPS) to grow on M9 minimal media ([1]; 20 mM, 40 h, 0.1% rhamnose): completely abolish
- growth with gradually increasing rhamnose (EPSPS TIPS titration) ([3]; 0.25 mM, rhamnose 0%-0.4%, 60 h): could not facilitates growth in a gradual manner
- rescue of growth phenotype by titration of EPSPS TIPS intracellular levels ([3]; single inhibitory dose, rhamnose 0.0%-0.4%): couldn't rescue the growth phenotype
- % bacterial growth relative to rescue with wild type EPSPS at 5 mM, 40 h post application [2]: −20%
- ability of rescued AB2829 bacteria cells (wild type EPSPS) to grow on M9 minimal media ([2]; 5 mM): completely abolish

SMILES: O=C(O)c1cc([N+](=O)[O-])cc(C(F)(F)F)c1 [Compound 15, 3-Nitro-5-(trifluoromethyl) benzoic acid]
- % bacterial growth relative to rescue with mutant EPSPS at 20 mM, 40 h post application [1]: −118%
- ability of rescued AB2829 bacteria cells (EPSPS TIPS) to grow on M9 minimal media ([1]; 20 mM, 40 h, 0.1% rhamnose): completely abolish
- growth with gradually increasing rhamnose (EPSPS TIPS titration) ([3]; 0.6 mM, rhamnose 0%-0.4%, 60 h): facilitates growth in a gradual manner
- % bacterial growth relative to rescue with wild type EPSPS at 5 mM, 40 h post application [2]: −177%

SMILES: Nc1cc(O)c([N+](=O)[O-])cc1C(=O)O [Compound 4, 2-Amino-4-hydroxy-5-nitrobenzoic acid]
- % bacterial growth relative to rescue with mutant EPSPS at 20 mM, 40 h post application [1]: −94%
- ability of rescued AB2829 bacteria cells (EPSPS TIPS) to grow on M9 minimal media ([1]; 20 mM, 40 h, 0.1% rhamnose): completely abolish
- inhibition of the TIPS mutant relative to glyphosate (TIPS EPSPS; IC50 comparison, TIPS EPSPS enzyme): one order of magnitude better
- effect of the TIPS mutation on inhibition of EPSPS activity (IC50 WT vs TIPS) (TIPS EPSPS): hardly affected
- mode of EPSPS inhibition (Michaelis-Menten and Lineweaver-Burk plots) (WT EPSPS): competitive inhibitor
- growth with gradually increasing rhamnose (EPSPS TIPS titration) ([3]; 1.0 mM, rhamnose 0%-0.4%, 60 h): facilitates growth in a gradual manner
- % bacterial growth relative to rescue with wild type EPSPS at 5 mM, 40 h post application [2]: −87%
- ability of rescued AB2829 bacteria cells (wild type EPSPS) to grow on M9 minimal media ([2]; 5 mM): completely abolish

SMILES: COC(=O)c1cc([N+](=O)[O-])cc([N+](=O)[O-])c1 [Compound 12, 3,5-Dinitrobenzoic acid methyl ester]
- % bacterial growth relative to rescue with mutant EPSPS at 20 mM, 40 h post application [1]: −29%
- ability of rescued AB2829 bacteria cells (EPSPS TIPS) to grow on M9 minimal media [1]: completely abolish
- ability of rescued AB2829 bacteria cells (wild type EPSPS) to grow on M9 minimal media ([2]; 5 mM): completely abolish

SMILES: O=C(O)c1cc([N+](=O)[O-])cc([N+](=O)[O-])c1O [Compound 6, 2-Hydroxy-3,5-dinitrobenzoic acid]
- % bacterial growth relative to rescue with mutant EPSPS at 20 mM, 40 h post application [1]: −285%
- ability of rescued AB2829 bacteria cells (EPSPS TIPS) to grow on M9 minimal media [1]: completely abolish

SMILES: CNc1ccc([N+](=O)[O-])cc1C(=O)O [Compound 8, -(Methylamino)-5-nitrobenzoic acid]
- % bacterial growth relative to rescue with mutant EPSPS at 20 mM, 40 h post application [1]: −272%
- ability of rescued AB2829 bacteria cells (EPSPS TIPS) to grow on M9 minimal media ([1]; 20 mM, 40 h, 0.1% rhamnose): completely abolish
- CHEAL Germination (%) Mean ([4]; 50 mg a.i./L, 10 DAT): 90.0%
- CHEAL Visual notation Mean ([4]; 50 mg a.i./L, 10 DAT): 21.8
- CHEAL Germination (%) Mean ([4]; 500 mg a.i./L, 10 DAT): 55.0%
- CHEAL Visual notation Mean ([4]; 500 mg a.i./L, 10 DAT): 83.8
- CHEAL Germination (%) Mean ([4]; 5000 mg a.i./L, 10 DAT): 34.5%
- CHEAL Visual notation Mean ([4]; 5000 mg a.i./L, 10 DAT): 95.0
- LOLMU Germination (%) Mean ([5]; 50 mg a.i./L, 10 DAT): 93.2%
- LOLMU Visual notation Mean ([5]; 50 mg a.i./L, 10 DAT): 3.5
- LOLMU Germination (%) Mean ([5]; 500 mg a.i./L, 10 DAT): 91.1%
- LOLMU Visual notation Mean ([5]; 500 mg a.i./L, 10 DAT): 6.6
- LOLMU Germination (%) Mean ([5]; 5000 mg a.i./L, 10 DAT): 30.4%
- LOLMU Visual notation Mean ([5]; 5000 mg a.i./L, 10 DAT): 64.8
